Test results: patent US11684607B2, “Secnidazole for use in the treatment of bacterial vaginosis” (priority 2014, dated 2023)

Test system: bacterial vaginosis
Assay: Telephone diary questionnaire on vaginal discharge and odor (five point scale), mITT population
Type: in vivo, human
Conditions: for proportion of women reporting 3-5 for vaginal discharge / proportion of women reporting 3-5 for vaginal odor / proportion of women reporting 4-5 for vaginal discharge / proportion of women reporting 4-5 for vaginal odor: 2 g dose; for Discharge 1 point (Normal/Not an Issue): number of women / Discharge 1 point (Normal/Not an Issue): proportion of women / Discharge 2 points (Mildly Abnormal): number of women / Discharge 2 points (Mildly Abnormal): proportion of women / Discharge 3 points (Moderately Abnormal): number of women / Discharge 3 points (Moderately Abnormal): proportion of women / Discharge 4 points (Severely Abnormal): number of women / Discharge 4 points (Severely Abnormal): proportion of women / Discharge 5 points (Very Severely Abnormal): number of women / Discharge 5 points (Very Severely Abnormal): proportion of women / Odor 1 point (Normal/Not an Issue): number of women / Odor 1 point (Normal/Not an Issue): proportion of women / Odor 2 points (Mildly Abnormal): number of women / Odor 2 points (Mildly Abnormal): proportion of women / Odor 3 points (Moderately Abnormal): number of women / Odor 3 points (Moderately Abnormal): proportion of women / Odor 4 points (Severely Abnormal): number of women / Odor 4 points (Severely Abnormal): proportion of women / Odor 5 points (Very Severely Abnormal): number of women / Odor 5 points (Very Severely Abnormal): proportion of women: 2 g

## Cc1ncc([N+](=O)[O-])n1CC(C)O (stereo not shown) [SYM-1219, 1-(2-hydroxypropyl)-2-methyl-5-nitromidazole]
Day 1
  proportion of women reporting 3-5 for vaginal discharge: 59%
  proportion of women reporting 3-5 for vaginal odor: 66%
  proportion of women reporting 4-5 for vaginal discharge: 36%
  proportion of women reporting 4-5 for vaginal odor: 38%
Day 3 (~48 hours)
  proportion of women reporting 3-5 for vaginal discharge: 30%
  proportion of women reporting 3-5 for vaginal odor: 20%
  proportion of women reporting 4-5 for vaginal discharge: 11%
  proportion of women reporting 4-5 for vaginal odor: 9%
Day 7
  proportion of women reporting 3-5 for vaginal discharge: 14%
  proportion of women reporting 3-5 for vaginal odor: 9%
  proportion of women reporting 4-5 for vaginal discharge: 0%
  proportion of women reporting 4-5 for vaginal odor: 0%
Day 1
  Discharge 1 point (Normal/Not an Issue): number of women: 6
  Discharge 1 point (Normal/Not an Issue): proportion of women: 10%
  Discharge 2 points (Mildly Abnormal): number of women: 18
  Discharge 2 points (Mildly Abnormal): proportion of women: 31%
  Discharge 3 points (Moderately Abnormal): number of women: 13
  Discharge 3 points (Moderately Abnormal): proportion of women: 22%
  Discharge 4 points (Severely Abnormal): number of women: 17
  Discharge 4 points (Severely Abnormal): proportion of women: 29%
  Discharge 5 points (Very Severely Abnormal): number of women: 4
  Discharge 5 points (Very Severely Abnormal): proportion of women: 7%
  Odor 1 point (Normal/Not an Issue): number of women: 8
  Odor 1 point (Normal/Not an Issue): proportion of women: 14%
  Odor 2 points (Mildly Abnormal): number of women: 12
  Odor 2 points (Mildly Abnormal): proportion of women: 21%
  Odor 3 points (Moderately Abnormal): number of women: 16
  Odor 3 points (Moderately Abnormal): proportion of women: 28%
  Odor 4 points (Severely Abnormal): number of women: 17
  Odor 4 points (Severely Abnormal): proportion of women: 29%
  Odor 5 points (Very Severely Abnormal): number of women: 5
  Odor 5 points (Very Severely Abnormal): proportion of women: 9%
Day 2
  Discharge 1 point (Normal/Not an Issue): number of women: 9
  Discharge 1 point (Normal/Not an Issue): proportion of women: 17%
  Discharge 2 points (Mildly Abnormal): number of women: 20
  Discharge 2 points (Mildly Abnormal): proportion of women: 38%
  Discharge 3 points (Moderately Abnormal): number of women: 15
  Discharge 3 points (Moderately Abnormal): proportion of women: 29%
  Discharge 4 points (Severely Abnormal): number of women: 3
  Discharge 4 points (Severely Abnormal): proportion of women: 6%
  Discharge 5 points (Very Severely Abnormal): number of women: 5
  Discharge 5 points (Very Severely Abnormal): proportion of women: 10%
  Odor 1 point (Normal/Not an Issue): number of women: 10
  Odor 1 point (Normal/Not an Issue): proportion of women: 19%
  Odor 2 points (Mildly Abnormal): number of women: 23
  Odor 2 points (Mildly Abnormal): proportion of women: 44%
  Odor 3 points (Moderately Abnormal): number of women: 10
  Odor 3 points (Moderately Abnormal): proportion of women: 19%
  Odor 4 points (Severely Abnormal): number of women: 8
  Odor 4 points (Severely Abnormal): proportion of women: 15%
  Odor 5 points (Very Severely Abnormal): number of women: 1
  Odor 5 points (Very Severely Abnormal): proportion of women: 2%
Day 3
  Discharge 1 point (Normal/Not an Issue): number of women: 13
  Discharge 1 point (Normal/Not an Issue): proportion of women: 24%
  Discharge 2 points (Mildly Abnormal): number of women: 25
  Discharge 2 points (Mildly Abnormal): proportion of women: 46%
  Discharge 3 points (Moderately Abnormal): number of women: 10
  Discharge 3 points (Moderately Abnormal): proportion of women: 19%
  Discharge 4 points (Severely Abnormal): number of women: 3
  Discharge 4 points (Severely Abnormal): proportion of women: 6%
  Discharge 5 points (Very Severely Abnormal): number of women: 3
  Discharge 5 points (Very Severely Abnormal): proportion of women: 6%
  Odor 1 point (Normal/Not an Issue): number of women: 20
  Odor 1 point (Normal/Not an Issue): proportion of women: 37%
  Odor 2 points (Mildly Abnormal): number of women: 23
  Odor 2 points (Mildly Abnormal): proportion of women: 43%
  Odor 3 points (Moderately Abnormal): number of women: 6
  Odor 3 points (Moderately Abnormal): proportion of women: 11%
  Odor 4 points (Severely Abnormal): number of women: 4
  Odor 4 points (Severely Abnormal): proportion of women: 7%
  Odor 5 points (Very Severely Abnormal): number of women: 1
  Odor 5 points (Very Severely Abnormal): proportion of women: 2%
Day 4
  Discharge 1 point (Normal/Not an Issue): number of women: 19
  Discharge 1 point (Normal/Not an Issue): proportion of women: 35%
  Discharge 2 points (Mildly Abnormal): number of women: 22
  Discharge 2 points (Mildly Abnormal): proportion of women: 40%
  Discharge 3 points (Moderately Abnormal): number of women: 8
  Discharge 3 points (Moderately Abnormal): proportion of women: 15%
  Discharge 4 points (Severely Abnormal): number of women: 5
  Discharge 4 points (Severely Abnormal): proportion of women: 9%
  Discharge 5 points (Very Severely Abnormal): number of women: 1
  Discharge 5 points (Very Severely Abnormal): proportion of women: 2%
  Odor 1 point (Normal/Not an Issue): number of women: 27
  Odor 1 point (Normal/Not an Issue): proportion of women: 49%
  Odor 2 points (Mildly Abnormal): number of women: 18
  Odor 2 points (Mildly Abnormal): proportion of women: 33%
  Odor 3 points (Moderately Abnormal): number of women: 6
  Odor 3 points (Moderately Abnormal): proportion of women: 11%
  Odor 4 points (Severely Abnormal): number of women: 4
  Odor 4 points (Severely Abnormal): proportion of women: 7%
  Odor 5 points (Very Severely Abnormal): number of women: 0
  Odor 5 points (Very Severely Abnormal): proportion of women: 0%
Day 5
  Discharge 1 point (Normal/Not an Issue): number of women: 21
  Discharge 1 point (Normal/Not an Issue): proportion of women: 43%
  Discharge 2 points (Mildly Abnormal): number of women: 17
  Discharge 2 points (Mildly Abnormal): proportion of women: 35%
  Discharge 3 points (Moderately Abnormal): number of women: 4
  Discharge 3 points (Moderately Abnormal): proportion of women: 8%
  Discharge 4 points (Severely Abnormal): number of women: 6
  Discharge 4 points (Severely Abnormal): proportion of women: 12%
  Discharge 5 points (Very Severely Abnormal): number of women: 1
  Discharge 5 points (Very Severely Abnormal): proportion of women: 2%
  Odor 1 point (Normal/Not an Issue): number of women: 28
  Odor 1 point (Normal/Not an Issue): proportion of women: 58%
  Odor 2 points (Mildly Abnormal): number of women: 12
  Odor 2 points (Mildly Abnormal): proportion of women: 25%
  Odor 3 points (Moderately Abnormal): number of women: 5
  Odor 3 points (Moderately Abnormal): proportion of women: 10%
  Odor 4 points (Severely Abnormal): number of women: 3
  Odor 4 points (Severely Abnormal): proportion of women: 6%
  Odor 5 points (Very Severely Abnormal): number of women: 0
  Odor 5 points (Very Severely Abnormal): proportion of women: 0%
Day 6
  Discharge 1 point (Normal/Not an Issue): number of women: 22
  Discharge 1 point (Normal/Not an Issue): proportion of women: 47%
  Discharge 2 points (Mildly Abnormal): number of women: 15
  Discharge 2 points (Mildly Abnormal): proportion of women: 32%
  Discharge 3 points (Moderately Abnormal): number of women: 7
  Discharge 3 points (Moderately Abnormal): proportion of women: 15%
  Discharge 4 points (Severely Abnormal): number of women: 2
  Discharge 4 points (Severely Abnormal): proportion of women: 4%
  Discharge 5 points (Very Severely Abnormal): number of women: 1
  Discharge 5 points (Very Severely Abnormal): proportion of women: 2%
  Odor 1 point (Normal/Not an Issue): number of women: 29
  Odor 1 point (Normal/Not an Issue): proportion of women: 62%
  Odor 2 points (Mildly Abnormal): number of women: 12
  Odor 2 points (Mildly Abnormal): proportion of women: 26%
  Odor 3 points (Moderately Abnormal): number of women: 5
  Odor 3 points (Moderately Abnormal): proportion of women: 11%
  Odor 4 points (Severely Abnormal): number of women: 1
  Odor 4 points (Severely Abnormal): proportion of women: 2%
  Odor 5 points (Very Severely Abnormal): number of women: 0
  Odor 5 points (Very Severely Abnormal): proportion of women: 0%
Day 7
  Discharge 1 point (Normal/Not an Issue): number of women: 24
  Discharge 1 point (Normal/Not an Issue): proportion of women: 55%
  Discharge 2 points (Mildly Abnormal): number of women: 14
  Discharge 2 points (Mildly Abnormal): proportion of women: 32%
  Discharge 3 points (Moderately Abnormal): number of women: 6
  Discharge 3 points (Moderately Abnormal): proportion of women: 14%
  Discharge 4 points (Severely Abnormal): number of women: 0
  Discharge 4 points (Severely Abnormal): proportion of women: 0%
  Discharge 5 points (Very Severely Abnormal): number of women: 0
  Discharge 5 points (Very Severely Abnormal): proportion of women: 0%
  Odor 1 point (Normal/Not an Issue): number of women: 33
  Odor 1 point (Normal/Not an Issue): proportion of women: 75%
  Odor 2 points (Mildly Abnormal): number of women: 7
  Odor 2 points (Mildly Abnormal): proportion of women: 16%
  Odor 3 points (Moderately Abnormal): number of women: 4
  Odor 3 points (Moderately Abnormal): proportion of women: 9%
  Odor 4 points (Severely Abnormal): number of women: 0
  Odor 4 points (Severely Abnormal): proportion of women: 0%
  Odor 5 points (Very Severely Abnormal): number of women: 0
  Odor 5 points (Very Severely Abnormal): proportion of women: 0%
EOS
  Discharge 1 point (Normal/Not an Issue): number of women: 36
  Discharge 1 point (Normal/Not an Issue): proportion of women: 68%
  Discharge 2 points (Mildly Abnormal): number of women: 9
  Discharge 2 points (Mildly Abnormal): proportion of women: 17%
  Discharge 3 points (Moderately Abnormal): number of women: 4
  Discharge 3 points (Moderately Abnormal): proportion of women: 8%
  Discharge 4 points (Severely Abnormal): number of women: 3
  Discharge 4 points (Severely Abnormal): proportion of women: 6%
  Discharge 5 points (Very Severely Abnormal): number of women: 1
  Discharge 5 points (Very Severely Abnormal): proportion of women: 2%
  Odor 1 point (Normal/Not an Issue): number of women: 36
  Odor 1 point (Normal/Not an Issue): proportion of women: 69%
  Odor 2 points (Mildly Abnormal): number of women: 7
  Odor 2 points (Mildly Abnormal): proportion of women: 13%
  Odor 3 points (Moderately Abnormal): number of women: 9
  Odor 3 points (Moderately Abnormal): proportion of women: 17%
  Odor 4 points (Severely Abnormal): number of women: 0
  Odor 4 points (Severely Abnormal): proportion of women: 0%
  Odor 5 points (Very Severely Abnormal): number of women: 0
  Odor 5 points (Very Severely Abnormal): proportion of women: 0%
